From US5164370A, “Peptide analogues of insulin-like growth factor 1 (IGF-1) or factor 2 (IGF-2)” (Gropep Pty. Ltd., priority 1987, dated 1992)
Where no end group is shown, it is not given here.

How the values were obtained:
L6 myoblasts = test: incorporation of 3H-labelled leucine into total cell protein of L6 myoblasts (protein synthesis bioassay); type: cell-based; settings: for Concentration (percent of that required to give a half-response with hIGF-1): hIGF-1 half-response 12 ng/ml = 100, lower = more potent
Source text: Bioassays of purified synthetic peptides have been compared with pure human/bovine/porcine IGF-1. The assays involve the incorporation of 3H-labelled leucine into the total cell protein of L6 myoblasts as described by Francis et al. (Biochem. J. 233:207-213, 1986).

purified binding protein = test: competition for binding of labelled human/bovine/porcine IGF-1 to purified binding protein; settings: competition with labelled human/bovine/porcine IGF-1
Source text: This apparent discrepancy is caused by the myoblasts producing a binding protein in addition to the receptor. This binding protein selectively binds those IGF-1 peptides that have a glutamic acid residue at position 3 from the N-terminal, thus preventing the peptide binding to the cell receptor. This interpretation is established by the following results [determined by the method of Martin and Baxter, J. Biol, Chem. 261: 8754-8760, (1986)] with purified binding proteins (see Table 2).

| Substance | Potency for binding to the protein where hIGF-1 = 100% (purified binding protein) [%] | Concentration (percent of that required to give a half-response with hIGF-1) (L6 myoblasts) [%] | concentration required to give a half-response (L6 myoblasts; 3H-leucine incorporation) [ng/mL] |
| --- | --- | --- | --- |
| Gly--Pro--Gln--Thr--Leu--Cys--: IGF-1 analogue: glutamic acid at position 3 substituted with glutamine (GPQTLC; not fully specified (C-terminus); printed as Gly—Pro—Gln—Thr—Leu—Cys—; ends and bridges not checked; also: N-terminal part of IGF-1 analogue, rest of chain not shown) | 1.0 | 18 |  |
| Gly--Pro--Glu--Thr--Leu--Cys--: pure human/bovine/porcine insulin-like growth factor-1, full 70-residue sequence (b3) (GPETLC; not fully specified (C-terminus); ends and bridges not checked; also: N-terminal part of IGF-1, rest of chain not shown) [reference compound] | 100 | 100 | 12 |
| Gly--Pro--Gly--Arg--Leu--Cys--: IGF-1 analogue: glutamic acid 3 substituted with glycine and threonine 4 with arginine (GPGRLC; not fully specified (C-terminus); printed as Gly—Pro—Gly—Arg—Leu—Cys—; ends and bridges not checked; also: N-terminal part of IGF-1 analogue, rest of chain not shown) | < 0.1 | 4 |  |
| Gly--Pro--Gly--Gly--Leu--Cys--: IGF-1 analogue: glutamic acid 3 substituted with glycine and threonine 4 with glycine (GPGGLC; not fully specified (C-terminus); printed as Gly—Pro—Gly—Gly—Leu—Cys—; ends and bridges not checked; also: N-terminal part of IGF-1 analogue, rest of chain not shown) | 0.1 | 14 |  |
| Gly--Pro--Leu--Thr--Leu--Cys--: IGF-1 analogue: glutamic acid at position 3 substituted with leucine (GPLTLC; not fully specified (C-terminus); printed as Gly—Pro—Leu—Thr—Leu—Cys—; ends and bridges not checked; also: N-terminal part of IGF-1 analogue, rest of chain not shown) | 0.5 | 18 |  |
| Gly--Pro--Lys--Thr--Leu--Cys--: IGF-1 analogue: glutamic acid at position 3 substituted with lysine (GPKTLC; not fully specified (C-terminus); printed as Gly—Pro—Lys—Thr—Leu—Cys—; ends and bridges not checked; also: N-terminal part of IGF-1 analogue, rest of chain not shown) | 0.1 | 11 |  |

More lines, main results first:

| Potency for binding to the protein where hIGF-1 = 100% (purified binding protein) [%] | Substance | Concentration (percent of that required to give a half-response with hIGF-1) (L6 myoblasts) [%] | concentration required to give a half-response (L6 myoblasts; 3H-leucine incorporation) [ng/mL] |
| --- | --- | --- | --- |
| < 0.1 | Gly--Pro--Arg--Thr--Leu--Cys--: IGF-1 analogue: glutamic acid at position 3 substituted with arginine (GPRTLC; not fully specified (C-terminus); printed as Gly—Pro—Arg—Thr—Leu—Cys—; ends and bridges not checked; also: N-terminal part of IGF-1 analogue, rest of chain not shown) | 5 |  |
| 0.5 | Gly--Pro--Gly--Thr--Leu--Cys--: IGF-1 analogue: glutamic acid at position 3 substituted with glycine (GPGTLC; not fully specified (C-terminus); printed as Gly—Pro—Gly—Thr—Leu—Cys—; ends and bridges not checked; also: N-terminal part of IGF-1 analogue, rest of chain not shown) | 12 |  |
| 1.0 | Gly--Thr--Leu--Cys--: IGF-1 analogue: Gly, Pro removed and glutamic acid substituted with glycine (GTLC; not fully specified (C-terminus); printed as Gly—Thr—Leu—Cys—; ends and bridges not checked; also: N-terminal part of IGF-1 analogue, rest of chain not shown) | 16 |  |
